Measurements as given in ChEMBL document CHEMBL5724914, “Linking interpersonal differences in gut microbiota composition and drug biotransformation activity” (2024).

Columns and labels:
[1] = human gut metagenome, 24 h, 2 µM
[2] = human gut metagenome, 24 h, 2 µM; remark: listed apart in the source
[3] = human gut metagenome, 24 h, 2 µM; remark: listed apart in the source
[4] = human gut metagenome, 24 h, 2 µM; remark: listed apart in the source
[5] = (§1) The drug is tested on WLS-086 corresponding to human gut metagenome with ENA study accession number: PRJEB37062 and ENA sample accession number: ERS12561752 for biotransformation under anaerobic condition. The drug concentrations were measured over 9 timepoints collected between 0 and 24 hours of incubation by liquid-chromatography-coupled mass spectrometry (LC–MS); settings: 2 µM
[6] = human gut metagenome, 24 h, 2 µM; remark: listed apart in the source
[7] = human gut metagenome, 24 h, 2 µM; remark: listed apart in the source
[8] = human gut metagenome, 24 h, 2 µM; remark: listed apart in the source
[9] = human gut metagenome, 24 h, 2 µM; remark: listed apart in the source
[10] = human gut metagenome, 24 h, 2 µM; remark: listed apart in the source
[11] = as §1, with “Z-028” for “WLS-086”, “mouse” for “human”, “ERS12561827” for “ERS12561752”; settings: 2 µM
[12] = as §1, with “Z-012” for “WLS-086”, “to” for “to human gut”, “ERS12561812” for “ERS12561752”; settings: 2 µM
[13] = as §1, with “Z-017” for “WLS-086”, “mouse” for “human”, “ERS12561816” for “ERS12561752”; settings: 2 µM
[14] = as §1, with “Z-010” for “WLS-086”, “to” for “to human gut”, “ERS12561810” for “ERS12561752”; settings: 2 µM
[15] = as §1, with “Z-011” for “WLS-086”, “mouse” for “human”, “ERS12561811” for “ERS12561752”; settings: 2 µM
[16] = as §1, with “Z-005” for “WLS-086”, “to” for “to human gut”, “ERS12561805” for “ERS12561752”; settings: 2 µM
[17] = as §1, with “Z-024” for “WLS-086”, “pig” for “human”, “ERS12561823” for “ERS12561752”; settings: 2 µM
[18] = as §1, with “Z-016” for “WLS-086”, “mouse” for “human”, “ERS12561815” for “ERS12561752”; settings: 2 µM
[19] = as §1, with “Z-025” for “WLS-086”, “rabbit” for “human”, “ERS12561824” for “ERS12561752”; settings: 2 µM
[20] = as §1, with “Z-026” for “WLS-086”, “to” for “to human gut”, “ERS12561825” for “ERS12561752”; settings: 2 µM
Further: call rule not given here.

Row | Compound | Bacterial Biotransformation [1] | Bacterial Biotransformation [2] | Bacterial Biotransformation [3] | Bacterial Biotransformation [4] | Bacterial Biotransformation [5] | Bacterial Biotransformation [6] | Bacterial Biotransformation [7] | Bacterial Biotransformation [8] | Bacterial Biotransformation [9] | Bacterial Biotransformation [10] | Bacterial Biotransformation [11] | Bacterial Biotransformation [12] | Bacterial Biotransformation [13] | Bacterial Biotransformation [14] | Bacterial Biotransformation [15] | Bacterial Biotransformation [16] | Bacterial Biotransformation [17] | Bacterial Biotransformation [18] | Bacterial Biotransformation [19] | Bacterial Biotransformation [20]
1 | N#Cc1ccc2c(c1)N(CCCN1CCC(O)CC1)c1ccccc1S2 [PERICIAZINE] | Compound metabolized | Compound metabolized | Compound metabolized | Compound NOT metabolized | Compound metabolized | Compound NOT metabolized | Compound NOT metabolized | Compound metabolized | Compound metabolized | Compound metabolized | – | – | – | – | – | – | – | – | – | –
2 | C[C@]12C=CC(=O)C=C1CC[C@@H]1[C@@H]2C(=O)C[C@@]2(C)[C@H]1CC[C@]2(O)C(=O)CO [PREDNISONE] | – | Compound metabolized | Compound metabolized | Compound metabolized | Compound metabolized | Compound metabolized | Compound NOT metabolized | Compound metabolized | Compound metabolized | Compound metabolized | Compound metabolized | Compound metabolized | Compound metabolized | Compound metabolized | Compound NOT metabolized | Compound NOT metabolized | Compound metabolized | Compound metabolized | Compound NOT metabolized | Compound metabolized
3 | N[C@@H](Cc1ccc(N(CCCl)CCCl)cc1)C(=O)O | Compound metabolized | Compound metabolized | Compound metabolized | Compound metabolized | Compound metabolized | Compound NOT metabolized | Compound metabolized | Compound NOT metabolized | – | Compound metabolized | – | – | – | – | Compound metabolized | – | Compound metabolized | – | – | –
4 | N#Cc1ccc2[nH]cc(CCCCN3CCN(c4ccc5oc(C(N)=O)cc5c4)CC3)c2c1 [VILAZODONE] | Compound metabolized | Compound metabolized | Compound metabolized | Compound metabolized | Compound metabolized | – | Compound metabolized | Compound metabolized | Compound metabolized | Compound metabolized | Compound metabolized | Compound NOT metabolized | Compound NOT metabolized | Compound metabolized | Compound metabolized | Compound metabolized | Compound metabolized | Compound metabolized | Compound NOT metabolized | Compound NOT metabolized
5 | COCCCC/C(=N\OCCN)c1ccc(C(F)(F)F)cc1.O=C(O)/C=C\C(=O)O [FLUVOXAMINE MALEATE] | Compound NOT metabolized | Compound NOT metabolized | Compound metabolized | Compound NOT metabolized | Compound NOT metabolized | Compound metabolized | Compound metabolized | Compound metabolized | Compound NOT metabolized | Compound NOT metabolized | – | – | – | – | – | – | – | – | – | –
6 | CCOC(=O)C1=C(C)NC(C)=C(C(=O)OC)C1c1cccc([N+](=O)[O-])c1 (configuration not stated) [NITRENDIPINE] | Compound metabolized | Compound metabolized | Compound metabolized | Compound metabolized | Compound metabolized | Compound metabolized | Compound metabolized | Compound metabolized | Compound metabolized | Compound metabolized | – | – | – | – | – | – | – | – | – | –
7 | CC#CCn1c(N2CCC[C@@H](N)C2)nc2c1c(=O)n(Cc1nc(C)c3ccccc3n1)c(=O)n2C [LINAGLIPTIN] | Compound NOT metabolized | Compound NOT metabolized | Compound NOT metabolized | Compound NOT metabolized | Compound NOT metabolized | Compound NOT metabolized | Compound NOT metabolized | Compound NOT metabolized | – | Compound NOT metabolized | – | – | – | – | – | – | – | – | – | –
8 | CN(C)CCc1c[nH]c2ccc(CS(=O)(=O)N3CCCC3)cc12 [ALMOTRIPTAN] | Compound metabolized | Compound NOT metabolized | Compound NOT metabolized | Compound NOT metabolized | Compound metabolized | Compound NOT metabolized | Compound metabolized | Compound metabolized | Compound NOT metabolized | Compound metabolized | – | – | – | – | – | – | – | – | – | –
9 | CN(C/C=C/C#CC(C)(C)C)Cc1cccc2ccccc12 [TERBINAFINE] | Compound NOT metabolized | Compound NOT metabolized | Compound NOT metabolized | Compound NOT metabolized | Compound metabolized | Compound NOT metabolized | Compound NOT metabolized | Compound metabolized | Compound NOT metabolized | Compound NOT metabolized | Compound NOT metabolized | Compound NOT metabolized | Compound NOT metabolized | Compound NOT metabolized | Compound NOT metabolized | Compound NOT metabolized | Compound NOT metabolized | Compound NOT metabolized | – | Compound NOT metabolized
10 | CNCC[C@H](Oc1cccc2ccccc12)c1cccs1 [DULOXETINE] | Compound metabolized | Compound NOT metabolized | Compound NOT metabolized | Compound NOT metabolized | Compound NOT metabolized | Compound NOT metabolized | Compound NOT metabolized | Compound metabolized | Compound NOT metabolized | Compound metabolized | – | – | – | – | – | – | – | – | – | –
11 | CNNCc1ccc(C(=O)NC(C)C)cc1 [PROCARBAZINE] | Compound metabolized | Compound NOT metabolized | Compound NOT metabolized | Compound NOT metabolized | Compound metabolized | Compound NOT metabolized | Compound NOT metabolized | Compound NOT metabolized | Compound NOT metabolized | Compound metabolized | Compound metabolized | Compound metabolized | – | – | – | Compound NOT metabolized | Compound metabolized | – | – | Compound metabolized
12 | O=C([O-])C[C@H](O)C[C@H](O)/C=C/c1c(C2CC2)nc2ccccc2c1-c1ccc(F)cc1.O=C([O-])C[C@H](O)C[C@H](O)/C=C/c1c(C2CC2)nc2ccccc2c1-c1ccc(F)cc1.[Ca+2] [PITAVASTATIN CALCIUM] | Compound metabolized | Compound metabolized | Compound metabolized | Compound metabolized | Compound metabolized | Compound NOT metabolized | Compound metabolized | Compound NOT metabolized | Compound metabolized | Compound metabolized | – | – | – | – | – | – | – | – | – | –
